Entries after “also recorded” stand apart in the source; their conditions may differ.
Experiments:
CT26 colon cancer [1] = assay: Inhibition of CT26 colon cancer in BALB/c mice (Example 47, 5 mg/kg); format: in vivo; conditions: gavaged daily, two consecutive weeks, FIG. 9 and FIG. 10
Description: In this example, the inhibitory effects of Compounds 9, 11-3, 25, 26, 27, and DU102 on colon cancer growth were tested.
Murine CT26 cells were inoculated into the left abdomen of 6-week-old male mice at a dose of 5×10^5 cells per mouse. Approximately 7 days later, the mice were randomly divided into two groups: the control group or the compound treatment group. They were gavaged daily with either the vehicle control (ddH2O or 5% DMSO in corn oil) or 5 mg/kg of Compounds 9, 11-3, 25, 26, or 27 (dissolved in the corresponding vehicle) for two consecutive weeks. Tumor diameters were measured every 2-3 days using a digital caliper (ULINE, Cat^# H-7352), and the tumor volume was calculated using the formula ½ × longitudinal diameter (length) × maximum transverse diameter (width). When the maximum tumor volume reached 2000 mm^3, the mice were euthanized.

CT26 colon cancer [2] = assay: Inhibition of CT26 colon cancer in BALB/c mice (Example 48, 10 mg/kg); format: in vivo; conditions: gavaged daily, two consecutive weeks, FIG. 11
Description: In this example, the inhibitory effects of Compounds 28, 30, 31, 33, 34, and DU102 synthesized in the above preparation examples on the growth of colon cancer were tested.
Murine CT26 cells were inoculated into the left abdomen of 6-week-old male mice at a dose of 5×10^5 cells per mouse. Approximately 7 days later, the mice were randomly divided into two groups: the control group or the compound treatment group. The mice were gavaged daily with either the vehicle control (ddH2O or 5% DMSO in corn oil) or 10 mg/kg of Compounds 28, 30, 31, 33, 34, and DU102 (dissolved in the corresponding vehicle) for two consecutive weeks. Tumor diameters were measured every 2-3 days using a digital caliper (ULINE, Cat^# H-7352), and the tumor volume was calculated using the formula ½ × longitudinal diameter (length) × maximum transverse diameter (width). When the maximum tumor volume reached 3000 mm^3, the mice were euthanized.

NF-κB signaling pathway = assay: Activation of NF-κB signaling pathway (phosphorylated P65, Western blot); format: cell-based, Murine; conditions: CT26 cells; FIG. 6
Description: In this example, Compounds 3 and 9 synthesized in the above preparation examples were tested for their ability to activate the NF-κB signaling pathway, as indicated by an increase of phosphorylated P65. GCA, a known Arf1 inhibitor, was used as a positive control.
In CT26 cells treated with DMSO, GCA, Compound 3, or Compound 9, the relevant protein levels were evaluated by Western blot analysis as previously described (Wang et al., 2020).

Mouse neuroblastoma N2A = assay: Test for Golgi morphology abnormalities (GM130 immunofluorescence); format: cell-based; conditions: N2A cells; FIG. 4
Description: GCA, a known Arf1 inhibitor, was used as a positive control.
Mouse neuroblastoma N2A (N2a, ATCC®CCL-131™) was cultured, treated, and subjected to immunofluorescence staining as previously reported (Wang et al., 2021).

CCL5 = assay: Upregulation of chemokine CCL5 expression (quantitative RT-PCR); format: cell-based, Murine; conditions: CT26 cells; FIG. 5
Description: In this example, the upregulation of chemokine CCL5 expression induced by the treatment of Compounds 3 and 9 synthesized in the above preparation examples was tested. Quantitative RT-PCR was used to measure the expression level of chemokine CCL5 in CT26 cells treated with DMSO, Compound 3, or Compound 9.

[3] = system: Drosophila orthotopic tumors; assay: Inhibition of orthotopic tumor growth in Drosophila; format: in vivo; conditions: 5 µM in food, 4 days; Ras^V12-PMML clones; FIG. 7
Description: In this example, the inhibitory effects of Compounds 3 and 9 synthesized in the above preparation examples on the growth of Drosophila orthotopic tumors were tested. As previously described, renal stem cell tumor clusters were induced by expressing Ras in Drosophila renal stem cell (Ras^V12-PMML) clones (Singh et al., 2016). The Drosophila carrying Ras^V12-PMML clones were cultured with normal food at room temperature for 4 days to allow tumor growth. They were then switched to food containing the indicated drugs for an additional 4 days, followed by feeding the Drosophila carrying Ras^V12-PMML with normal food containing DMSO or 5 µM Compound 3 or Compound 9. In the indicated groups, the number of esg>GFP + tumor cells per 5×10^3 µm^2 area was quantified to characterize tumor size.

Arf1 = biological target: T1, Arf1 (Homo sapiens, UniProt P84077); assay: Inhibition test of Arf1 activation (Active Arf1 pull-down and detection kit, Western blot); format: cell-based; conditions: lysate of liver cancer Huh-7 cells; GTP-bound Arf1; FIG. 3
T1 construct: endogenous in cells; host or cells: Huh-7 liver cancer cells (lysate)
T1 sequence (P84077 whole entry): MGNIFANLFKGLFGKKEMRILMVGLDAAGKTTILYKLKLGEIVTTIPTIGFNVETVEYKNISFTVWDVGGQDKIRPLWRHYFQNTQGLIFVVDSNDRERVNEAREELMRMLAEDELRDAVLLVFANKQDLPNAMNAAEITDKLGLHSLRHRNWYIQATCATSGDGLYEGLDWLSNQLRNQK
Description: In this example, the inhibitory ability of Compounds 3 and 9 synthesized in the above preparation examples on Arf1 activation was tested. The Pierce Active Arf1 Pull-Down and Detection Kit (Thermo Scientific, Cat#16121) was used with the lysate of liver cancer Huh-7 cells to detect the activated Arf1. It is a complete kit that selectively enriches and detects GTP-bound Arf1 GTPase through specific protein interactions with the GGA3 protein-binding domain.

Molecule: Cc1nc2ccc(Nc3ncnc4scc(C)c34)cc2[nH]1 [Compound 25, 5-Methyl-N-(2-methyl-1H-benzo[d]imidazol-6-yl)thieno[2,3-d]pyrimidin-4-amine]
- inhibition of CT26 colon cancer (CT26 colon cancer [1]): effectively inhibit CT26 colon cancer

Molecule: Cn1cnc2cc(Nc3ncnc4sc5c(c34)CCN(C(=O)c3ccc(Cl)s3)C5)ccc21 [Compound 26, (5-Chlorothiophen-2-yl)(4-((1-methyl-1H-benzo[d]imidazol-5-yl)amino)-5,8-dihydropyrido[4',3':4,5]thieno[2,3-d]pyrimidin-7(6H)-yl)methanone]
- inhibition of CT26 colon cancer (CT26 colon cancer [1]): effectively inhibit CT26 colon cancer

Molecule: Cc1nc2ccc(Nc3ncnc4sc5c(c34)CCNC5)cc2[nH]1 [Compound 28, N-(2-Methyl-1H-benzo[d]imidazol-6-yl)-5,6,7,8-tetrahydropyrido[4',3':4,5]thieno[2,3-d]pyrimidin-4-amine]
- inhibition of CT26 colon cancer (CT26 colon cancer [2]): effectively inhibit CT26 colon cancer

Molecule: CC(=O)N1CCc2c(sc3ncnc(Nc4ccc5nc(C)[nH]c5c4)c23)C1 [Compound 30, 1-(4-((2-Methyl-1H-benzo[d]imidazol-6-yl)amino)-5,8-dihydropyrido[4',3':4,5]thieno[2,3-d]pyrimidin-7(6H)-yl)ethanone]
- inhibition of CT26 colon cancer (CT26 colon cancer [2]): effectively inhibit CT26 colon cancer

Molecule: Cc1nc2cc(Nc3ncnc4sc5c(c34)CCCCCC5)ccc2[nH]1 [Compound 31, N-(2-Methyl-1H-benzo[d]imidazol-5-yl)-5,6,7,8,9,10-hexahydrocycloocta[4,5]thieno[2,3-d]pyrimidin-4-amine]
- inhibition of CT26 colon cancer (CT26 colon cancer [2]): effectively inhibit CT26 colon cancer

Molecule: Cc1nc2cc(/C=N/Nc3ncnc4sc5c(c34)CCCCCC5)ccc2[nH]1 [Compound 33, (E)-4-(2-((2-Methyl-1H-benzo[d]imidazol-5-yl)methylene)hydrazinyl)-5,6,7,8,9,10-hexahydrocycloocta[4,5]thieno[2,3-d]pyrimidine]
- inhibition of CT26 colon cancer (CT26 colon cancer [2]): effectively inhibit CT26 colon cancer

Molecule: Fc1cc(F)c2c(c1)[C@H]1C=CC[C@H]1C(c1cccnc1)N2 (stereo partly shown) [GCA, reference compound]
- phosphorylation level of P65 (NF-κB signaling pathway): increase the phosphorylation level of P65
- Golgi morphology (Golgi apparatus defects, distribution of Golgi marker GM130) (Mouse neuroblastoma N2A): effectively induce morphological changes in the Golgi apparatus

Molecule: N-(1H-Indol-5-yl)-methylthieno[2,3-d]pyrimidin-4-amine [Compound 3]
- phosphorylation level of P65 (NF-κB signaling pathway): increase the phosphorylation level of P65
- expression of the chemokine CCL5 (CCL5): effectively promote the expression
- Golgi morphology (Golgi apparatus defects, distribution of Golgi marker GM130) (Mouse neuroblastoma N2A): induce Golgi apparatus defects; also recorded: effectively induce morphological changes in the Golgi apparatus
- orthotopic tumor growth in Drosophila [3]: effectively inhibit orthotopic tumor growth
- inhibition of Arf1 activation (Arf1): effectively inhibit the activation of Arf1; also recorded: effective inhibitors
